Laboratory results reported in US20250346616A1 (DIZAL (JIANGSU) PHARMACEUTICAL CO., LTD., priority 2022, published 2025).

Tests used:
Recombinant ROCK1 = Recombinant ROCK1 (Homo sapiens (Human), UniProt Q13464); assay: Lance Ultra Kinase Assay, ROCK1 inhibition; format: biochemical; conditions: ATP at Km, 30 min pre-incubation, 1 h reaction
HepG2 cells = assay: Cell-based phospholipidosis assay (LipidTOX Red); conditions: Homo sapiens, 24 h, LipidTOX Red dye
Method: HepG2 cells were dispensed into Collagen I-coated 96-well black wall/clear bottom assay plates at 5000 cells/90 μL/well.
The assay plates were then incubated at 37° C. for 24 h, […] of 8% paraformaldehyde (4% final) fixative solution containing 8 μg/ml Hoechst 33342 (4 ug/mL final) in DPBS was added to each well. After incubation at room temperature for 25 min, the assay plates were washed with DPBS. The assay plates were sealed and stored at 4° C. before imaging.
The fluorescence intensities (595 nm excitation, 615 nm emission for LipidTOX Red; 352 nm excitation, 461 nm emission for Hoechst 33342) were measured using an High Content Screening System (Operetta, PerkinElmer) with a 10×Fluor objective. […] Average intensities were subjected to Prism and EC50 were calculated.

Recombinant ROCK2 = Recombinant ROCK2 (Homo sapiens (Human), UniProt O75116); assay: Lance Ultra Kinase Assay, ROCK2 inhibition; format: biochemical; conditions: ATP at Km, 30 min pre-incubation, 1 h reaction
Chain of Recombinant ROCK2 (O75116 whole entry): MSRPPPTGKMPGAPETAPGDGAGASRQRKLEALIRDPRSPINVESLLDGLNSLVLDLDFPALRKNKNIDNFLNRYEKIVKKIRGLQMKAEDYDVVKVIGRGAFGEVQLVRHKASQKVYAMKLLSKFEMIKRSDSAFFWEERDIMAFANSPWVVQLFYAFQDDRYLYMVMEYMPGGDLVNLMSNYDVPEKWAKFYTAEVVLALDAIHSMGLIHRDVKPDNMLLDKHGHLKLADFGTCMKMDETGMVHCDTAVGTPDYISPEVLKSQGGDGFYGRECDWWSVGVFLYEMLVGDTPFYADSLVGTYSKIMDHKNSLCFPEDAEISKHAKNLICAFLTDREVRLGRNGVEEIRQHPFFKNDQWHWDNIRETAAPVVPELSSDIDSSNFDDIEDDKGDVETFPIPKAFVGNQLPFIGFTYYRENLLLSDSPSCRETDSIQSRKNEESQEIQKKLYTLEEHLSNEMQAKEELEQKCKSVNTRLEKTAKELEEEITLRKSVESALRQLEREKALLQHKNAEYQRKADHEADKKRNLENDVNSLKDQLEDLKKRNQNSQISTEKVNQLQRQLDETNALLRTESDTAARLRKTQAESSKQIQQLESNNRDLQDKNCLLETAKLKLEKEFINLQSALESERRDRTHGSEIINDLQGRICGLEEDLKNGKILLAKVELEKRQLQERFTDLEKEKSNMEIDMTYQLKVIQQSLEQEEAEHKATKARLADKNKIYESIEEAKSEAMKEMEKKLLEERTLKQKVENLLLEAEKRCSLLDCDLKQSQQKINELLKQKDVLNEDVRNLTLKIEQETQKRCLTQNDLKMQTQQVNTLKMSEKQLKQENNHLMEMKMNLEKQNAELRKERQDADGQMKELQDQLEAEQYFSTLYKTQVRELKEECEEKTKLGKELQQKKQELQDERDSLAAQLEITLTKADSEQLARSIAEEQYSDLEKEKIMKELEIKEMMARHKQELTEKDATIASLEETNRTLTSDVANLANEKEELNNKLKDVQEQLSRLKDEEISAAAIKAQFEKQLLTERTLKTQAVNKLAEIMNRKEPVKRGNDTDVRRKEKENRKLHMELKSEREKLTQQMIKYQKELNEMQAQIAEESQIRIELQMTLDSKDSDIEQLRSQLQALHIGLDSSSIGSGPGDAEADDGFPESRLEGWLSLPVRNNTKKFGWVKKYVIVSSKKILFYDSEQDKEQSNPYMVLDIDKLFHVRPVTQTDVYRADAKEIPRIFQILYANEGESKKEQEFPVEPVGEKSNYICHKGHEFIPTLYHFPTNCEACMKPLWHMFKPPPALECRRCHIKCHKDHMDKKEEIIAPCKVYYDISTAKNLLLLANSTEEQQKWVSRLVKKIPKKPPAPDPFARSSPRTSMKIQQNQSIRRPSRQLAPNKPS

pMLC2 = assay: Cellular PD assay, pMLC2 in PASMC (western blot); format: cell-based; conditions: PASMC, 0.5 h; Human Pulmonary Artery Smooth Muscle Cells, 30 min incubation
Method: (§1) PASMC (Human Pulmonary Artery Smooth Muscle Cells) were grown in Smooth Muscle Cell Growth medium (Promocell #C-22162). The cells were resuspended at 3×10^5 cells per well in 6-well plate in Smooth Muscle Cell Growth medium (Promocell #C-22162) and incubated compound concentration range: (10000/1111/333/111/37/12.3/4.1/0.41/0 nM) for 30 min.
(§2) Cells were then placed on ice and washed with ice-cold PBS. Cell lysates were prepared with 2×SDS. Separate proteins by SDS-PAGE 2 hr, transfer of proteins form gel to membrane 90 min, Blocking the membrane with 5% milk 1 hr and incubation in primary antibody overnight at 4° C., Incubate the membrane in HRP-conjugated secondary antibody diluted in blocking buffer (1:2000) for 1 hour at room temperature. Detection using Amersham ECL plus western blotting detection system (LAS4000). The purified product was analysed by SDS PAGE and the amount of target protein calculated by gray scanning by Multi-Gauge V3.0 software.

pMYPT1 = assay: Cellular PD assay, pMYPT1 in PASMC (western blot); format: cell-based; conditions: PASMC, 0.5 h; Human Pulmonary Artery Smooth Muscle Cells, 30 min incubation
Method: as §1, §2

Chain of Recombinant ROCK1 (Q13464 whole entry): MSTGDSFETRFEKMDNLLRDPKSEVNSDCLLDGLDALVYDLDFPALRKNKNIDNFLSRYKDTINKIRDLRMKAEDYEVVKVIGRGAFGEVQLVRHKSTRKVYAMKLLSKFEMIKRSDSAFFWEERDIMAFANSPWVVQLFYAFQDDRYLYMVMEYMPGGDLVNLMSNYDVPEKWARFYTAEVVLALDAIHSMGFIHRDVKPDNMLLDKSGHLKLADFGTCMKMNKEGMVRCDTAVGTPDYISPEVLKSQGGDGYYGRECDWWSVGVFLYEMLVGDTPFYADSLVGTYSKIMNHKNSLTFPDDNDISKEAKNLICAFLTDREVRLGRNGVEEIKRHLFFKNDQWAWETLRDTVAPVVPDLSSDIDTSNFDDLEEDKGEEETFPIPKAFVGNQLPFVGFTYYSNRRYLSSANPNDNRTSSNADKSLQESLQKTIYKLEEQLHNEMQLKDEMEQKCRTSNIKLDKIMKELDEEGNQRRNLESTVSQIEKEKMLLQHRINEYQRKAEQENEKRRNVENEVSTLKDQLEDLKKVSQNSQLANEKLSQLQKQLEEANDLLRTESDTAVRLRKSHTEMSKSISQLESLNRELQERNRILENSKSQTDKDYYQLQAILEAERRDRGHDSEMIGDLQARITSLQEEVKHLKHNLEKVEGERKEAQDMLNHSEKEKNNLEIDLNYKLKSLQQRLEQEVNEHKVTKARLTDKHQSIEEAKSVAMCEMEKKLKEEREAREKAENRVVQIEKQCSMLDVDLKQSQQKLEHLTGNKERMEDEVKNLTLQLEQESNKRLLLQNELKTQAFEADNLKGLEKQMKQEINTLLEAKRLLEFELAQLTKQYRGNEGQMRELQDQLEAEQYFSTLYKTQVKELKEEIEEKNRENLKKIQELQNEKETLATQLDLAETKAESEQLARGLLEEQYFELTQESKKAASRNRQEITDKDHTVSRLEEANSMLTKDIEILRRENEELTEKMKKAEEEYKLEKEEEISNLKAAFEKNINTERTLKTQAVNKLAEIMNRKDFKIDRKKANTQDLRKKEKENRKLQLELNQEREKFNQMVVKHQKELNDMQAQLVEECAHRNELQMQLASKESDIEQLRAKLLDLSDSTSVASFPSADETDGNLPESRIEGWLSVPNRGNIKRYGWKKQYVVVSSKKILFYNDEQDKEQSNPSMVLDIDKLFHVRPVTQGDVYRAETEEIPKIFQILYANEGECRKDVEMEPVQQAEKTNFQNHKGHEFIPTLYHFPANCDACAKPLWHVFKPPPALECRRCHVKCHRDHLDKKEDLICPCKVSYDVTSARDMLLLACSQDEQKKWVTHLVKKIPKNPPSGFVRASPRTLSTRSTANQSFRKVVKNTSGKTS

| SMILES | IC50 (Recombinant ROCK1) [nM] | IC50 (Recombinant ROCK2) [nM] | IC50 (pMLC2) [nM] | IC50 (pMYPT1) [nM] | EC50 (HepG2 cells) [µM] |
| --- | --- | --- | --- | --- | --- |
| N#Cc1cccc(C(CN)C(=O)Nc2cccc3c(-c4cn[nH]c4)c[nH]c23)c1 (racemic) [Example 19, N-(3-(1H-pyrazol-4-yl)-1H-indol-7-yl)-3-amino-2-(3-cyanophenyl)propanamide] | 2.2 | 0.92 | – | – | > 50 |
| NCC(C(=O)Nc1cccc2c(-c3cn[nH]c3)c[nH]c12)c1cccnc1 (racemic) [Example 31, N-(3-(1H-pyrazol-4-yl)-1H-indol-7-yl)-3-amino-2-(pyridin-3-yl)propanamide] | 1.2 | 0.48 | 31 | – | > 50 |
| NCC(C(=O)Nc1cccc2c(-c3cn[nH]c3)c[nH]c12)c1ccc(CO)cc1 (single isomer, unassigned) [Example 3, N-(3-(1H-pyrazol-4-yl)-1H-indol-7-yl)-3-amino-2-(4-(hydroxymethyl)phenyl)propanamide] | 0.33 | 0.17 | 46 | 99 | > 200 |
| COc1cccc(C(CN)C(=O)Nc2cccc3c(-c4cn[nH]c4)c[nH]c23)c1 (single isomer, unassigned) [Example 18, N-(3-(1H-pyrazol-4-yl)-1H-indol-7-yl)-3-amino-2-(3-methoxyphenyl)propanamide] | 0.3 | 0.14 | 4.2 | 5.6 | 10.9 |
| N#Cc1cccc(C(CN)C(=O)Nc2cccc3c(-c4cn[nH]c4)c[nH]c23)c1 (single isomer, unassigned) [Example 20, N-(3-(1H-pyrazol-4-yl)-1H-indol-7-yl)-3-amino-2-(3-cyanophenyl)propanamide] | 2.8 | 1.3 | 38 | 41 | > 200 |
| NCC(C(=O)Nc1cccc2c(-c3cn[nH]c3)c[nH]c12)C1CCOCC1 (single isomer, unassigned) [Example 26, N-(3-(1H-pyrazol-4-yl)-1H-indol-7-yl)-3-amino-2-(tetrahydro-2H-pyran-4-yl)propanamide] | 1.4 | 0.96 | 85 | 153 | > 200 |
| NCC(C(=O)Nc1cccc2c(-c3cn[nH]c3)c[nH]c12)c1cccnc1 (single isomer, unassigned) [Example 32, N-(3-(1H-pyrazol-4-yl)-1H-indol-7-yl)-3-amino-2-(pyridin-3-yl)propanamide] | 0.55 | 0.24 | 42 | 62 | > 200 |
| CN1CCN(CC(C(=O)Nc2cccc3c(-c4cn[nH]c4)c[nH]c23)c2ccccc2)CC1 (single isomer, unassigned) [Example 38, N-(3-(1H-pyrazol-4-yl)-1H-indol-7-yl)-3-(4-methylpiperazin-1-yl)-2-phenylpropanamide] | 0.44 | 0.26 | 8.2 | 13 | 6.23 |
| NC[C@@H](C(=O)Nc1cccc2c(-c3cn[nH]c3)c[nH]c12)c1ccc(COC(=O)CCCCCO[N+](=O)[O-])cc1 [Example 10, [4-[(1S)-1-(aminomethyl)-2-oxo-2-[[3-(1H-pyrazol-4-yl)-1H-indol-7-yl]amino]ethyl]phenyl]methyl 6-nitrooxyhexanoate] | 1.6 | – | 8.1 | 10 | > 66.6 |
| Cc1ccc(C(=O)OCc2ccc([C@@H](CN)C(=O)Nc3ccc4cnccc4c3)cc2)c(C)c1 [Netarsudil] | – | – | – | – | 0.89 |

The next lines start with results.

| IC50 (Recombinant ROCK1) [nM] | IC50 (Recombinant ROCK2) [nM] | IC50 (pMLC2) [nM] | IC50 (pMYPT1) [nM] | SMILES | EC50 (HepG2 cells) [µM] |
| --- | --- | --- | --- | --- | --- |
| 0.86 | 0.65 | – | – | CNC(=O)OCc1cccc(C(CN)C(=O)Nc2cccc3c(-c4cn[nH]c4)c[nH]c23)c1 (racemic) [Example 49, 3-(1-((3-(1H-pyrazol-4-yl)-1H-indol-7-yl)amino)-3-amino-1-oxopropan-2-yl)benzyl methylcarbamate] | > 200 |
| 2 | 0.62 | – | – | NCC(C(=O)Nc1cccc2c(-c3cn[nH]c3)c[nH]c12)c1ccc(C(N)=O)cc1 (racemic) [Example 74, 4-(1-((3-(1H-pyrazol-4-yl)-1H-indol-7-yl)amino)-3-amino-1-oxopropan-2-yl)benzamide] | > 200 |
| 0.42 | 0.22 | 95 | – | NCCN1CCN(C(C(=O)Nc2cccc3c(-c4cn[nH]c4)c[nH]c23)c2ccccc2)CC1 (racemic) [Example 105, 2-[4-(2-aminoethyl)piperazin-1-yl]-2-phenyl-N-[3-(1H-pyrazol-4-yl)-1H-indol-7-yl]acetamide] | 23.6 |
| 2.7 | 0.83 | 61 | 155 | N#Cc1ccc(C(CN)C(=O)Nc2cccc3c(-c4cn[nH]c4)c[nH]c23)cc1 (single isomer, unassigned) [Example 59, N-(3-(1H-pyrazol-4-yl)-1H-indol-7-yl)-3-amino-2-(4-cyanophenyl)propanamide] | > 66.6 |
| 2.3 | 0.7 | – | – | NCC(C(=O)Nc1cccc2c(-c3cn[nH]c3)c[nH]c12)c1ccc(CO)nc1 (single isomer, unassigned) [Example 60, N-(3-(1H-pyrazol-4-yl)-1H-indol-7-yl)-3-amino-2-(6-(hydroxymethyl)pyridin-3-yl)propanamide] | > 50 |
| 0.18 | 0.1 | 3 | 2.8 | COc1cccc([C@@H](N)C(=O)Nc2cccc3c(-c4cn[nH]c4)c[nH]c23)c1 [Example 42, (2R)-2-amino-2-(3-methoxyphenyl)-N-[3-(1H-pyrazol-4-yl)-1H-indol-7-yl]acetamide] | > 200 |
| 1.2 | 0.75 | – | – | NCC(C(=O)Nc1cccc2c(-c3cn[nH]c3)c[nH]c12)C1CCCOC1 (centres unmarked) [Example 91, 3-amino-2-(oxan-3-yl)-N-[3-(1H-pyrazol-4-yl)-1H-indol-7-yl]propanamide] | 24.4 |
